Reference: ChEMBL document CHEMBL5344418, “Recent developments in antimalarial activities of 4-aminoquinoline derivatives” (Eur J Med Chem, 2023)

Columns and labels:
Plasmodium falciparum [1] = test: Antimalarial activity against chloroquine-sensitive Plasmodium falciparum 3D7 assessed as reduction in parasite growth incubated for 72 hrs by SYBR Green staining based fluorescence analysis; type: functional, organism-based; conditions: 3D7, 72 h
Plasmodium falciparum [2] = test: Antimalarial activity against chloroquine-resistant Plasmodium falciparum K1 assessed as reduction in parasite growth incubated for 72 hrs by SYBR Green staining based fluorescence analysis; type: functional, organism-based; conditions: K1, 72 h
[3] = Cytotoxicity against African green monkey Vero cells assessed as reduction in cell viability incubated for 72 hrs by MTT assay; type: toxicity, cell-based; conditions: chlorocebus sabaeus
Plasmodium falciparum [4] = test: Antiplasmodial activity against chloroquine-resistant Plasmodium falciparum W2 assessed as parasitic growth inhibition incubated for 72 hrs by SYBR Green staining based fluorescence analysis; type: functional, organism-based; conditions: W2, 72 h
Plasmodium falciparum [5] = test: Antiplasmodial activity against chloroquine-sensitive Plasmodium falciparum 3D7 assessed as parasitic growth inhibition incubated for 72 hrs by SYBR Green staining based fluorescence analysis; type: functional, organism-based; conditions: 3D7, 72 h
Plasmodium falciparum [6] = test: Antimalarial activity against chloroquine-sensitive Plasmodium falciparum 3D7 assessed as reduction in parasite growth incubated for 36 hrs by Giemsa staining based microscopic analysis; type: functional, organism-based; conditions: 3D7, 36 h
Plasmodium falciparum [7] = test: Antiplasmodial activity against Plasmodium falciparum 3D7; type: functional, organism-based
Plasmodium falciparum [8] = test: Antimalarial activity against chloroquine-resistant Plasmodium falciparum W2 assessed as growth inhibition incubated for 48 hrs by flow cytometry based analysis; type: functional, organism-based; conditions: W2, 48 h
[9] = Cytotoxicity against African green monkey Vero cells assessed as reduction in cell viability incubated for 24 hrs by fluorescence based analysis; type: toxicity; conditions: African green monkey (Chlorocebus sabaeus)
Plasmodium falciparum [10] = test: Antimalarial activity against Plasmodium falciparum Dd2 assessed as reduction in parasitic growth incubated for 48 hrs by SYBR green assay; type: functional, organism-based; conditions: Dd2, 48 h
[11] = Cytotoxicity against African monkey Vero cells assessed as reduction in cell viability incubated for 72 hrs by MTT assay; type: toxicity, cell-based; conditions: chlorocebus sabaeus
[12] = Cytotoxicity against African green monkey Vero cells; type: toxicity, cell-based; conditions: chlorocebus sabaeus
Plasmodium falciparum [13] = test: Antiplasmodial activity against Plasmodium falciparum K1; type: functional, organism-based

In the case of `CC(C)CC(CN1CCOCC1)N(C)c1ccnc2cc(Cl)ccc12` (centres undefined), the IC50 (Plasmodium falciparum [1]) is reported as 1.16 µM, the IC50 (Plasmodium falciparum [2]) is reported as 1.19 µM and the CC50 at 72 h [3] is reported as 50.8 µM.
Work on `O=Cc1cc(OCc2cn(CCCNc3ccnc4cc(Cl)ccc34)nn2)ccc1Br` yielded an IC50 (Plasmodium falciparum [4]) of 7.09 µM and an IC50 (Plasmodium falciparum [5]) of 6.29 µM.
Compound `CC(C)CC(CN1CCCCC1)N(C)c1ccnc2cc(C(F)(F)F)ccc12` (centres undefined) has an IC50 (Plasmodium falciparum [1]) of 2 µM, an IC50 (Plasmodium falciparum [2]) of 2.04 µM and a CC50 at 72 h [3] of 42.6 µM.
`C[C@H]1[C@@H](O)O[C@@H]2O[C@@]3(C)CC[C@H]4[C@H](C)CC[C@@H]1[C@@]24OO3` [ARTENIMOL] gave an IC50 (Plasmodium falciparum [6]) of 0.002 µM and an IC50 (Plasmodium falciparum [4]) of 0.001 µM.
`Cc1ccc(C(CCN(Cc2ccccc2)Cc2ccccc2)NCC(C)Nc2ccnc3cc(Cl)ccc23)cc1` (centres undefined) showed an IC50 (Plasmodium falciparum [7]) of 2.59 µM.
Work on `CCN(CC)CCC(NCC(C)Nc1ccnc2cc(Cl)ccc12)c1ccccc1` (centres undefined) yielded an IC50 (Plasmodium falciparum [7]) of 3.84 µM.
`O=C1c2ccc(N3CCCCC3)cc2C(=O)N1CCNc1ccnc2cc(Cl)ccc12` gave an IC50 (Plasmodium falciparum [8]) of 0.163 µM and an IC50 at 24 h [9] of 28.8 µM.
Compound `COc1ccc2nc(/C=C/c3ccc([N+](=O)[O-])cc3)cc(NC3CCCCC3)c2c1` has an IC50 (Plasmodium falciparum [10]) of 0.171 µM.
For `CN(CCCN1CCCCC1)c1ccnc2cc(Cl)ccc12`, the IC50 (Plasmodium falciparum [1]) was 0.04 µM, the IC50 (Plasmodium falciparum [2]) was 0.06 µM and the CC50 at 72 h [3] was 107 µM.
With `COc1ccc(C(CCN(C)C)NCC(C)Nc2ccnc3cc(Cl)ccc23)cc1` (centres undefined) the IC50 (Plasmodium falciparum [7]) was 8.25 µM.
For `O=Cc1cc(OCc2cn(-c3ccnc4ccc(Cl)cc34)nn2)ccc1Br`, the IC50 (Plasmodium falciparum [4]) was 7.39 µM and the IC50 (Plasmodium falciparum [5]) was 6.19 µM.
Work on `Cc1ccc(C(CCN2CCOCC2)NCC(C)Nc2ccnc3cc(Cl)ccc23)cc1` (centres undefined) yielded an IC50 (Plasmodium falciparum [7]) of 2.94 µM.
`O=C(Cn1cc(COc2ccc(Br)cc2)nn1)NCCNc1ccnc2cc(Cl)ccc12` showed a CC50 at 72 h [11] of 78.2 µM and an IC50 (Plasmodium falciparum [6]) of 0.04 µM.
`COc1ccc2nc(/C=C/c3ccc([N+](=O)[O-])cc3)cc(N3CCCCC3)c2c1` showed an IC50 (Plasmodium falciparum [10]) greater than 10 µM.
`Cc1ccc(C(CCN(C)C)NCC(C)Nc2ccnc3cc(Cl)ccc23)cc1` (centres undefined) gave an IC50 (Plasmodium falciparum [7]) of 5.17 µM.
In the case of `CCc1nc(N)nc(N)c1-c1ccc(Cl)cc1` [PYRIMETHAMINE], the CC50 [12] is reported as 18.1 µM.
`Cc1ccc(OCc2cn(CC(=O)NCCCCNc3ccnc4cc(Cl)ccc34)nn2)cc1` gave a CC50 at 72 h [11] of 5.02 µM and an IC50 (Plasmodium falciparum [6]) of 83.5 µM.
With `COc1ccc2nc(/C=C/c3ccc(Br)cc3)cc(NCCN(C)C)c2c1` the IC50 (Plasmodium falciparum [10]) was 0.04 µM.
Work on `COc1ccc2nc(/C=C/c3ccc([N+](=O)[O-])cc3)cc(N3CCOCC3)c2c1` yielded an IC50 (Plasmodium falciparum [10]) greater than 10 µM.
Work on `N=C(N=C(N)N)SCCNc1ccnc2cc(Cl)ccc12` yielded a CC50 [12] greater than 11.8 µM.
`O=Cc1cc(OCc2cn(CCN3CCN(c4ccnc5cc(Cl)ccc45)CC3)nn2)ccc1Br` showed an IC50 (Plasmodium falciparum [4]) of 8.26 µM and an IC50 (Plasmodium falciparum [5]) of 8.34 µM.
Work on `CCN(CC)CC(CC(C)C)N(C)c1ccnc2cc(C(F)(F)F)ccc12` (centres undefined) yielded an IC50 (Plasmodium falciparum [1]) of 3.8 µM, an IC50 (Plasmodium falciparum [2]) of 2.5 µM and a CC50 at 72 h [3] of 52 µM.
Work on `COc1ccc(Nc2ccnc3cc(Cl)ccc23)cc1` yielded an IC50 (Plasmodium falciparum [13]) of 4.87 µM.
Compound `Cc1ccc(C(=O)NNc2ccnc3cc(Cl)ccc23)cc1` has an IC50 (Plasmodium falciparum [13]) of 0.92 µM.
In the case of `N=C(N=C(N)N)SCCCCNc1ccnc2cc(C(F)(F)F)ccc12`, the CC50 [12] is reported as greater than 10.2 µM.
Compound `COc1ccc(C(=O)NNc2ccnc3cc(Cl)ccc23)cc1` has an IC50 (Plasmodium falciparum [13]) of 1.13 µM.
`CC(C)CC(CN1CCCC1)N(C)c1ccnc2cc(Cl)ccc12` (centres undefined) showed an IC50 (Plasmodium falciparum [1]) of 0.08 µM, an IC50 (Plasmodium falciparum [2]) of 0.18 µM and a CC50 at 72 h [3] of 47 µM.
Work on `CC1(C)OB(c2ccc(OCc3cn(-c4ccnc5ccc(Cl)cc45)nn3)cc2C=O)OC1(C)C` yielded an IC50 (Plasmodium falciparum [4]) of 6.19 µM and an IC50 (Plasmodium falciparum [5]) of 6.49 µM.
For `O=C1c2cccc(N3CCOCC3)c2C(=O)N1CCNc1ccnc2cc(Cl)ccc12`, the IC50 (Plasmodium falciparum [8]) was 0.18 µM and the IC50 at 24 h [9] was 28.6 µM.
`CCN(CC)CC(CC(C)C)N(C)c1ccnc2cc(Cl)ccc12` (centres undefined) showed an IC50 (Plasmodium falciparum [1]) of 0.23 µM, an IC50 (Plasmodium falciparum [2]) of 0.54 µM and a CC50 at 72 h [3] of 60.3 µM.
With `O=[N+]([O-])c1ccc(Nc2ccnc3cc(Cl)ccc23)cc1` the IC50 (Plasmodium falciparum [13]) was 5.51 µM.
In the case of `COc1ccc2nc(/C=C/c3cccs3)cc(NCCN(C)C)c2c1`, the IC50 (Plasmodium falciparum [10]) is reported as 0.096 µM.
With `COc1ccc2nc(/C=C/c3ccc([N+](=O)[O-])cc3)cc(N3CCCC3)c2c1` the IC50 (Plasmodium falciparum [10]) was 0.493 µM.
`O=C1c2cccc(N3CCCCC3)c2C(=O)N1CCCNc1ccnc2cc(Cl)ccc12` showed an IC50 (Plasmodium falciparum [8]) of 0.162 µM and an IC50 at 24 h [9] of 55.8 µM.
`N=C(N=C(N)N)SCCNc1ccnc2cc(C(F)(F)F)ccc12` showed a CC50 [12] greater than 10.9 µM.
For `Cc1cc(C(=O)NNc2ccnc3cc(Cl)ccc23)c2ccccc2n1`, the IC50 (Plasmodium falciparum [13]) was 0.09 µM.
`N=C(N=C(N)N)SCCCCNc1ccnc2cc(Cl)ccc12` gave a CC50 [12] greater than 11 µM.
In the case of `CCN(CC)CCC(NCC(C)Nc1ccnc2cc(Cl)ccc12)c1ccc(OC)cc1` (centres undefined), the IC50 (Plasmodium falciparum [7]) is reported as 2.41 µM.
With `COc1ccc2nc(/C=C/c3ccc([N+](=O)[O-])cc3)cc(N3CCN(CCO)CC3)c2c1` the IC50 (Plasmodium falciparum [10]) was 0.672 µM.
For `CN(c1ccnc2cc(Cl)ccc12)C(Cc1ccccc1)CN1CCCC1` (centres undefined), the IC50 (Plasmodium falciparum [1]) was 0.06 µM, the IC50 (Plasmodium falciparum [2]) was 0.1 µM and the CC50 at 72 h [3] was 57.8 µM.
